Source: paper PMC8271877, “Identifying a Deferiprone–Resveratrol Hybrid as an Effective Lipophilic Anti-Plasmodial Agent” (Molecules, 2021)
“Also recorded” adds a separate entry of the source. Read-outs that look alike come from different tables or passages of the source.

How the values were obtained:
[1] = test system: P. falciparum (3D7 strain); experiment: Drug sensitivity test (SYBR Green I), P. falciparum 3D7 strain; assay type: cell-based, Plasmodium falciparum; settings: for IC50: read-out: Absolute IC50 Value, P. falciparum (3D7 Strain)
[2] = test system: P. falciparum (K1 strain); experiment: Drug sensitivity test (SYBR Green I), P. falciparum K1 strain; assay type: cell-based, Plasmodium falciparum
[3] = test system: P. falciparum; settings: read-out: IC50 against P. falciparum; cited from earlier work
[4] = Partition coefficient (Po/w), 1-octanol/water system; settings: mean ± SD of three repetitions
[5] = parameters: method as in PMID 32208614; settings: cited from earlier work
[6] = cited from earlier work
[7] = test system: P. falciparum; parameters: method as in PMID 26424148; settings: read-out: IC50, inhibition of P. falciparum growth; cited from earlier work
[8] = test system: labile iron pools in P. falciparum-infected red blood cells (PRBCs); experiment: Labile iron pool (LIP) in P. falciparum-infected RBC, calcein quenching, flow cytometry; assay type: cell-based, Plasmodium falciparum; settings: for effect on MFI values of PRBCs (LIP content): 25–200 µM, calcein fluorescence, higher MFI = less LIP
[9] = test system: normal cell line; settings: read-out: IC50, normal cell line; cited from earlier work
[10] = parameters: method as in PMID 26424148; settings: cited from earlier work
[11] = test system: P. falciparum; parameters: method as in PMID 23266185; settings: read-out: IC50 against P. falciparum; cited from earlier work
[12] = parameters: method as in PMID 28061347; settings: metal-chelating activity; cited from earlier work
[13] = parameters: method as in PMID 28061347; settings: read-out: IC50, antioxidant activity; cited from earlier work
[14] = test system: healthy human PBMCs; experiment: MTT toxicity study in peripheral blood mononuclear cells
[15] = test system: Aβ1–42; parameters: method as in PMID 28061347; settings: read-out: IC50, Cu2+/Fe3+-induced Aβ1–42 aggregation; cited from earlier work
[16] = Plasmodium falciparum, 3D7, 48 h
[17] = Plasmodium falciparum, K1, 48 h, read-out: Absolute IC50 Value, P. falciparum (K1 Strain), PYR-resistant K1, 48 h, monotherapy

Compound: CCc1nc(N)nc(N)c1-c1ccc(Cl)cc1 [PYR, pyrimethamine]
- IC50 ([1]; PYR-sensitive wild-type 3D7, 48 h, monotherapy): 0.05 µM
- IC50 ([1]; Plasmodium falciparum, 3D7, 48 h, PYR-sensitive wild-type 3D7, 48 h, monotherapy): 0.046 µM
- IC50 ([2]; PYR-resistant K1, 48 h, monotherapy, read-out: Absolute IC50 Value, P. falciparum (K1 Strain)): 106 µM
- IC50 ([2]; Plasmodium falciparum, K1, 48 h, PYR-resistant K1, 48 h, monotherapy, read-out: Absolute IC50 Value, P. falciparum (K1 Strain)): 106 µM

Compound: COCCOCCOCCOc1cccc(C2=N[C@@](C)(C(=O)O)CS2)c1O [DADFT-PE, (S)3″-(HO)-desazadesferrithiocin-polyether]
- IC50 [3]: 6 µM

Compound: Cc1c(O)c(=O)ccn1C [DFP, 1,2-dimethyl-3-hydroxypyridin-4-one]
- IC50 [1, 16]: 47.7 µM
- Po/w Values (partition coefficient) [4]: 0.18 ± 0.06
- iron-mobilizing efficacy in rats [5]: 11.8%
- IC50 [2, 17]: 42 µM
- log Po/w values for free ligands [6]: −0.77
- log Po/w values for [Fe-L3] ([6]; iron complex): −2.6
- IC50 [7]: 58.2 µM
- effect on MFI values of PRBCs (LIP content) [8]: significantly increased the MFI values
- IC50 [9]: > 200 µM
- Kpart [10]: 0.17
- IC50 [11]: 67 µM
- IC50 [3]: 15 µM
- pFe(III) [12]: 20.6

Compound: Cn1cc(O)c(=O)cc1C=Cc1cc(O)cc(O)c1 [DFP-RVT, 2-(3,5-dihydroxystyryl)-5-hydroxy-1-methylpyridin-4(1H)-one]
- anti-malarial activity of combined treatment with PYR, 3D7 strain ([1]; DFP-RVT 5–15 µM with 25 nM PYR, 48 h): significant level of enhancement of anti-malarial activity; also recorded: additive effects
- IC50 [1, 16]: 16.8 µM
- IC50 [13]: 1.73 µM
- anti-malarial activity of combined treatment with PYR, K1 strain ([2]; DFP-RVT (0–15 µM) with 75 µM PYR, 48 h): significantly enhanced the anti-malarial activity; also recorded: additive effects
- IC50 [2, 17]: 13.4 µM
- IC50 ([2]; read-out: Absolute IC50 Value, P. falciparum (K1 Strain), PYR-resistant K1, 48 h, monotherapy): 14 µM
- toxicity to PBMCs ([14]; 200 µM, 48 h of incubation): slightly toxic
- toxicity to PBMCs ([14]; 25–200 µM, 24 h of incubation): not found to be toxic
- toxicity to PBMCs (words, summary) ([14]; concentrations up to 200 µM): nontoxic to blood mononuclear cells
- effect on MFI values of PRBCs (LIP content) [8]: significantly increased the MFI values
- reduction in LIP levels in PRBCs compared with DFP (∆MFI) ([8]; equal concentrations): more effective than conventional DFP at equal concentrations
- IC50 [15]: 10.7 µM
- pFe(III) [12]: 19.6

Compound: Cc1c(C)c2c(c(C)c1O)CCC(C)(C(=O)O)O2 (stereo not shown) [Trolox]
- IC50 [13]: 3.89 µM

Compound: COc1cc(/C=C/C(=O)CC(=O)/C=C/c2ccc(O)c(OC)c2)ccc1O [curcumin]
- IC50 [15]: 18.7 µM

Compound: Oc1ccc(/C=C/c2cc(O)cc(O)c2)cc1 [RVT, 3,5,4′-trihydroxy-trans-stilbene]
- IC50 [15]: 11.9 µM

Compound: CC(=O)N(O)CCCCCNC(=O)CCC(=O)N(O)CCCCCNC(=O)CCC(=O)N(O)CCCCCN [DFO, desferrioxamine]
- IC50 [3]: 30 µM

Compound: CC(=O)NCCCCCCn1ccc(=O)c(O)c1C [CM1, 1-(N-acetyl-6-aminohexyl)-3-hydroxy-2-methylpyridin-4-one]
- IC50 [7]: 35.1 µM
- Kpart [10]: 0.53
